{"source": "patent US20240374585A1", "about": "“EPITHELIAL SODIUM CHANNEL (ENAC) INHIBITOR CONJUGATES AND METHODS FOR USE THEREOF” (Lung Therapeutics, Inc., priority 2021, published 2024)", "target": "T1, ENaC (Homo sapiens, UniProt P37088+P51168+P51170)", "T1 construct": "Primary NHBE cells were isolated from bronchi of normal healthy patients; endogenous in cells; host or cells: primary normal human bronchial epithelial (NHBE) cells, differentiated at air-liquid interface", "T1 sequence (P37088 1-669)": "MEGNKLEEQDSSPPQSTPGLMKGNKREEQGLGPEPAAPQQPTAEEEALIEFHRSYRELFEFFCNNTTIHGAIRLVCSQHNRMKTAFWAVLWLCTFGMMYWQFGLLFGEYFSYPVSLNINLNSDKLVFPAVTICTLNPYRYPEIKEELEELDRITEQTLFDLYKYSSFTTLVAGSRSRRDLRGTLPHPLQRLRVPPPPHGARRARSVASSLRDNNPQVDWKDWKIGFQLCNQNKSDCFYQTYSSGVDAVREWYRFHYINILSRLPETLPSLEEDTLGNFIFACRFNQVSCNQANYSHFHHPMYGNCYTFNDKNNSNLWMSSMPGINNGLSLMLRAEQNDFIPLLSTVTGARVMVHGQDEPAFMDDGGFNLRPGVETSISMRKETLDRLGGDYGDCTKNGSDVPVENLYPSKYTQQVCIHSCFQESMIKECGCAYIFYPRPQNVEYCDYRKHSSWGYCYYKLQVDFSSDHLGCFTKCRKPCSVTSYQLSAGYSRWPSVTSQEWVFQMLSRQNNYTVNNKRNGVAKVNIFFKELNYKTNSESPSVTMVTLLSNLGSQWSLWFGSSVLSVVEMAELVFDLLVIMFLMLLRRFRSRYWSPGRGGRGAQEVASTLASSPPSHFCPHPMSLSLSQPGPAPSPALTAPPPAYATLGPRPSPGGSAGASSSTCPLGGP", "T1 sequence (P51168 1-640)": "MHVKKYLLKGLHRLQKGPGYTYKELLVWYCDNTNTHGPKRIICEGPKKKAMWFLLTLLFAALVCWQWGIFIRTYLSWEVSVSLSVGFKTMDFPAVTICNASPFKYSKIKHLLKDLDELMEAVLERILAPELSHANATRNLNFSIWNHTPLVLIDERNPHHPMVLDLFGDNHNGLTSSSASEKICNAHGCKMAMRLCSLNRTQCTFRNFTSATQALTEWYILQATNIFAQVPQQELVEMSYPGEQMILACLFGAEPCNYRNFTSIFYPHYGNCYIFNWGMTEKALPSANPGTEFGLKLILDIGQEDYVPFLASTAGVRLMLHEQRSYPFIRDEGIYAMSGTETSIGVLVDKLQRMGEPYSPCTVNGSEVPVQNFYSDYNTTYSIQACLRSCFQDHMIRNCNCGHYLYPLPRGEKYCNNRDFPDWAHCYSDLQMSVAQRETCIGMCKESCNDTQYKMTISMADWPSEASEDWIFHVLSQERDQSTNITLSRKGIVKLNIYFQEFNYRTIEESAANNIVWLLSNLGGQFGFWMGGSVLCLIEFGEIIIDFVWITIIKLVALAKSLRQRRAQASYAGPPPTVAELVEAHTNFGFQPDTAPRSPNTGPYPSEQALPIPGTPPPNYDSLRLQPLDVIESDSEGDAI", "T1 sequence (P51170 1-649)": "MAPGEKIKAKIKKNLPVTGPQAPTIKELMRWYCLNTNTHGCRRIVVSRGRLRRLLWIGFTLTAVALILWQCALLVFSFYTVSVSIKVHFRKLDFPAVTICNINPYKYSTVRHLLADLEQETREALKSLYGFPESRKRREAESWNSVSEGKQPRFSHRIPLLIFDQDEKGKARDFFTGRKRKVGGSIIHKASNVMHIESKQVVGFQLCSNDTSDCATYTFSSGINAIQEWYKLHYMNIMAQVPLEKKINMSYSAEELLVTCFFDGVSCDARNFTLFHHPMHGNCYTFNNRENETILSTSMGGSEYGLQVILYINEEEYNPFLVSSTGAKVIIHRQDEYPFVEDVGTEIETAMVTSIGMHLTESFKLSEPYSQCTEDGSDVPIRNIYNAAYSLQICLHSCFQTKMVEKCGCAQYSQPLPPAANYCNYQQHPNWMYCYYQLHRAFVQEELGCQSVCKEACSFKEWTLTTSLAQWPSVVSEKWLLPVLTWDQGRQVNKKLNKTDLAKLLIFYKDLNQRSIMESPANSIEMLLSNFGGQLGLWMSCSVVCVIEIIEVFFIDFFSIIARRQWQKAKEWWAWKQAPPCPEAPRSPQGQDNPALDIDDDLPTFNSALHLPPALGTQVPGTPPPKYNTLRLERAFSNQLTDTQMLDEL", "assay": "ENaC inhibition in NHBE cell monolayers, Ussing epithelial voltage clamp (short circuit current)", "format": "cell-based", "experimental": "The objective of this study was to measure the ability of the illustrative conjugates to modulate ion transport function of ENAC in normal human bronchial epithelial (NHBE) cell monolayers. Sodium transport function of ENAC expressed in NHBE monolayers was evaluated using an Ussing epithelial voltage clamp apparatus. See, Hirsh et al., J. Pharmacol. Exp. Ther. 2008; 325:77-88, hereby incorporated by reference in its entirety.\nPrimary NHBE cells were isolated from bronchi of normal healthy patients, expanded in Lonza media (BEGM™ BulletKit™), and plated on Snapwell™ filters to form an epithelium. Cells on Snapwell™ inserts were grown for at least 21 days in Vertex Differentiation media and exposed to an air-liquid interface to promote differentiation. At least one day before the assay, mucous overlaying the apical surface was removed from the inserts by incubating the apical surface for about 30 minutes with ≥200 μL of differentiation media followed by aspiration of the mucous film and media.\nThe NHBE cell monolayers grown on Snapwell™ filter inserts were transferred to Physiologic Instruments Ussing recording chambers (Physiologic Instruments, Inc., San Diego, CA) and superfused with HB-PS. One or more 6-channel or 8-channel Physiologic Instruments VCC MC6 or VCC MC8 epithelial voltage clamps were used in combination to record short circuit current (ISC) from up to 24 inserts simultaneously. Air was used to operate the bubble lifts to rapidly circulate solutions in each Ussing chamber half and to aerate the monolayers.\nInserts were voltage clamped at 0 m V to record the ISC. Bumetanide (20 μM) was added to the basolateral side of all inserts. Test conjugates prepared as DMSO (Sigma-Aldrich) stocks were added cumulatively and sequentially to the apical Ussing chamber halves with at least 3 minutes between each addition.\nTime and volume matched additions of DMSO to the basolateral side of the test conjugate treated inserts and both sides of the vehicle treated inserts was made to maintain osmotic balance across the epithelia. Transepithelial resistance was monitored with small voltage steps. The assay was performed at 35±2° C.\nENaC current at each test conjugate concentration was calculated as the peak current change produced by each test conjugate treated insert minus the mean current change produced by the corresponding DMSO additions to time-matched vehicle controls inserts. Cumulative difference data was fit to a Hill equation of the form: […]\nWhere IEnaC is the ISC peak difference current measured at each test conjugate concentration [Test].", "note": "Where two headings read alike, the source gives them in different places.", "data": [{"smiles": "CC(=O)N[C@@H](Cc1cn(CCCCNC(N)=NC(=O)c2nc(Cl)c(N)nc2N)nn1)C(=O)NCCCCCC(=O)N[C@H](C(=O)N[C@@H](CO)C(=O)N[C@@H](CCCCN)C(=O)N[C@@H](CCCNC(=N)N)C(=O)N[C@@H](CCCNC(=N)N)C(N)=O)C(C)C", "note": "[Conjugate 9, Ac-(AmilCC2-Pgy)-Ahx-VSKRR-NH2]", "values": [{"measurement": "IC50", "setting": "NHBE cell monolayers, Ussing chamber, apical addition, 35±2° C., read-out: IC50 for the ENaC inhibition", "value": 0.1, "unit": "µM"}]}, {"smiles": "CC(=O)N[C@@H](Cc1cn(CCCCNC(N)=NC(=O)c2nc(Cl)c(N)nc2N)nn1)C(=O)NCCCCCC(=O)N[C@@H](C)C(=O)N[C@@H](CO)C(=O)N[C@@H](Cc1c[nH]cn1)C(=O)N[C@@H](CC(C)C)C(=O)N[C@@H](CCCNC(=N)N)C(=O)N[C@@H](CCCCN)C(=O)N[C@@H](CC(C)C)C(=O)N[C@@H](CCCNC(=N)N)C(=O)N[C@@H](CCCCN)C(=O)N[C@@H](CCCNC(=N)N)C(=O)N[C@@H](CC(C)C)C(=O)N[C@@H](CC(C)C)C(N)=O", "note": "[Conjugate 8]", "values": [{"measurement": "IC50", "value": 0.06, "unit": "µM"}]}]}
